Measured values taken from PubChem BioAssay AID256 (DTP/NCI, 2004).
Values joined by “and” are separate entries in the source; they are usually repeats but may differ in a detail not shown here. Identical values can stand only once. Inconclusive results and toxic doses are left out. Rule for the calls: active = survival T/C of 150% or more; inactive = T/C below 125% in these data.

System: CD2F1 mice, L1210 leukemia ip, survival T/C
Assay: NCI In Vivo Anticancer Drug Screen. Data for tumor model L1210 Leukemia (intraperitoneal) in CD2F1 (CDF1) mice
Settings: higher = longer survival
Outline: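 Activity against a transplanted murine tumor was judged by comparing the compound group with a vehicle group. The outcome in the treated animals was divided by that in the controls.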

[1] = endpoint: mean survival time, dose: 100.0 mg/kg/injection, schedule: Q01DX009 (ip), vehicle: saline with Tween-80
[2] = endpoint: mean survival time, dose: 100.0 mg/kg/injection, schedule: Q04DX003 (ip), vehicle: saline with Tween-80
[3] = endpoint: mean survival time, dose: 200.0 mg/kg/injection, schedule: Q01DX009 (ip), vehicle: saline with Tween-80
[4] = endpoint: mean survival time, dose: 200.0 mg/kg/injection, schedule: Q04DX003 (ip), vehicle: saline with Tween-80
[5] = endpoint: mean survival time, dose: 400.0 mg/kg/injection, schedule: Q01DX009 (ip), vehicle: saline with Tween-80
[6] = endpoint: mean survival time, dose: 400.0 mg/kg/injection, schedule: Q04DX003 (ip), vehicle: saline with Tween-80
[7] = endpoint: mean survival time, dose: 25.0 mg/kg/injection, schedule: Q04DX003 (ip), vehicle: saline with Tween-80
[8] = endpoint: mean survival time, dose: 50.0 mg/kg/injection, schedule: Q04DX003 (ip), vehicle: saline with Tween-80
[9] = endpoint: mean survival time, dose: 100.0 mg/kg/injection, schedule: Q01DX001 (ip), vehicle: saline with Tween-80
[10] = endpoint: mean survival time, dose: 200.0 mg/kg/injection, schedule: Q01DX001 (ip), vehicle: saline with Tween-80
[11] = endpoint: mean survival time, dose: 400.0 mg/kg/injection, schedule: Q01DX001 (ip), vehicle: saline with Tween-80

Measured: T/C

Cc1nc2c(=O)n(C3OC(CO)C(O)C3O)cnc2o1 (stereo not drawn)
inactive: endpoint: mean survival time, dose: 100.0 mg/kg/injection, schedule: Q01DX005 (ip), vehicle: saline 103 % of control

Cc1ccc(S(=O)(=O)N(Cc2ccc(Cl)cc2)N2CCOC2=O)cc1
inactive: endpoint: mean survival time, dose: 50.0 mg/kg/injection, schedule: Q01DX009 (ip), vehicle: Klucel (hydroxypropylcellulose) (HPC) 92 % of control | endpoint: mean survival time, dose: 100.0 mg/kg/injection, schedule: Q01DX009 (ip), vehicle: Klucel (hydroxypropylcellulose) (HPC) 93 % of control | endpoint: mean survival time, dose: 200.0 mg/kg/injection, schedule: Q01DX009 (ip), vehicle: Klucel (hydroxypropylcellulose) (HPC) 98 % of control

O=P(O)(O)OP(=O)(O)OCC1OC(n2cnc3c(=S)nc[nH]c32)C(O)C1O (stereo not drawn)
inactive: endpoint: mean survival time, dose: 200.0 mg/kg/injection, schedule: Q01DX009 (ip), vehicle: saline sonified 123 % of control | endpoint: mean survival time, dose: 400.0 mg/kg/injection, schedule: Q01DX009 (ip), vehicle: saline sonified 112 % of control

CC(C)(C)c1ccc(SCC#CCOc2ccc(Cl)cc2)cc1
inactive: [1] 95 % of control | [2] 95 % of control | [3] 91 % of control | [4] 96 % of control | [5] 88 % of control | [6] 87 % of control

Nc1nc(N)nc(-c2ccccc2)n1
inactive: [2] 96 % of control | [4] 98 % of control | [6] 105 % of control

NC(=O)N/N=C1\CC2C=CCC12 (stereo not drawn)
inactive: [1] 95 % of control | [3] 98 % of control

CN(C)Cc1cc(C(C)(C)C)c(O)c(C(C)(C)C)c1
inactive: [7] 112 % of control | [8] 108 % of control | [2] 100 % of control

C=C(Cl)CSCCS
inactive: endpoint: mean survival time, dose: 50.0 mg/kg/injection, schedule: Q01DX009 (ip), vehicle: acetone 101 % of control | endpoint: mean survival time, dose: 100.0 mg/kg/injection, schedule: Q01DX009 (ip), vehicle: acetone 103 % of control

COC(=O)CNC(=O)C(Cc1ccc(OCc2ccccc2)cc1)NC(=O)OC(C)(C)C (stereo not drawn)
inactive: [2] 91 % of control | [4] 91 % of control | [6] 95 % of control

O=C(OC1C(COP(=O)(Oc2ccccc2)Oc2ccccc2)OC(n2nc(SCc3ccccc3)c(=O)[nH]c2=O)C1OC(=O)c1ccccc1)c1ccccc1 (stereo not drawn)
inactive: endpoint: median survival time, dose: 12.5 mg/kg/injection, schedule: Q01DX005 (ip), vehicle: distilled water + Tween-80 96 % of control | endpoint: median survival time, dose: 25.0 mg/kg/injection, schedule: Q01DX005 (ip), vehicle: distilled water + Tween-80 96 % of control | endpoint: median survival time, dose: 50.0 mg/kg/injection, schedule: Q01DX005 (ip), vehicle: distilled water + Tween-80 97 % of control | endpoint: median survival time, dose: 100.0 mg/kg/injection, schedule: Q01DX005 (ip), vehicle: distilled water + Tween-80 97 % of control | endpoint: median survival time, dose: 200.0 mg/kg/injection, schedule: Q01DX005 (ip), vehicle: distilled water + Tween-80 96 % of control

CCCCCCC(C#N)C(=O)OCC (stereo not drawn)
inactive: endpoint: mean survival time, dose: 75.0 mg/kg/injection, schedule: Q01DX001 (ip), vehicle: saline 100 % of control | endpoint: mean survival time, dose: 150.0 mg/kg/injection, schedule: Q01DX001 (ip), vehicle: saline 96 % of control | endpoint: mean survival time, dose: 300.0 mg/kg/injection, schedule: Q01DX001 (ip), vehicle: saline 100 % of control

NN1C(=O)Cc2ccccc2C1=O
inactive: [1] 103 % of control | [3] 109 % of control | [5] 105 % of control

CN(C(=O)CCC(=O)N(C)c1ccccc1)c1ccccc1
inactive: [9] 103 % of control | [10] 92 % of control | [11] 92 % of control

COc1cc(C)ccc1C1=CCCCCC1
inactive: endpoint: mean survival time, dose: 100.0 mg/kg/injection, schedule: Q04DX003 (ip), vehicle: saline 93 % of control | endpoint: mean survival time, dose: 200.0 mg/kg/injection, schedule: Q04DX003 (ip), vehicle: saline 93 % of control | endpoint: mean survival time, dose: 400.0 mg/kg/injection, schedule: Q04DX003 (ip), vehicle: saline 103 % of control

Cc1ccccc1Nc1c2ccccc2nc2ccccc12
inactive: endpoint: mean survival time, dose: 12.5 mg/kg/injection, schedule: Q04DX003 (ip), vehicle: saline with Tween-80 98 % of control | [7] 104 % of control | [8] 87 % of control

CCOC(=O)C(C(=O)COC)C(=O)OCC
inactive: endpoint: mean survival time, dose: 25.0 mg/kg/injection, schedule: Q01DX009 (ip), vehicle: water 102 % of control | endpoint: mean survival time, dose: 50.0 mg/kg/injection, schedule: Q01DX009 (ip), vehicle: water 97 % of control | endpoint: mean survival time, dose: 100.0 mg/kg/injection, schedule: Q01DX009 (ip), vehicle: water 97 % of control | endpoint: mean survival time, dose: 200.0 mg/kg/injection, schedule: Q01DX009 (ip), vehicle: water 94 % of control

CC1CC(NC(=S)NC(=O)c2ccccc2Cl)CC(C)(C)C1 (stereo not drawn)
inactive: [1] 86 % of control | [3] 86 % of control | [5] 86 % of control

COC12[C@@H]3N[C@@H]3CN1C1=C(C(=O)C(N(C)CCN(C)C)=C(C)C1=O)[C@@H]2COC(N)=O (stereo partly drawn)
inactive: endpoint: median survival time, dose: 3.0 mg/kg/injection, schedule: Q01DX001 (ip), vehicle: saline 104 % of control | endpoint: median survival time, dose: 6.0 mg/kg/injection, schedule: Q01DX001 (ip), vehicle: saline 105 % of control | endpoint: median survival time, dose: 12.0 mg/kg/injection, schedule: Q01DX001 (ip), vehicle: saline 119 % of control and 105 % of control | endpoint: median survival time, dose: 24.0 mg/kg/injection, schedule: Q01DX001 (ip), vehicle: saline 109 % of control

C[Si](C)(c1ccccc1C(=O)Nc1ccccc1)c1ccccc1C(=O)Nc1ccccc1
inactive: [2] 92 % of control | [4] 96 % of control | [6] 101 % of control

CCN1C2CCC1CC(O)C2 (stereo not drawn)
inactive: endpoint: mean survival time, dose: 100.0 mg/kg/injection, schedule: Q04DX002 (ip), vehicle: saline 94 % of control | endpoint: mean survival time, dose: 200.0 mg/kg/injection, schedule: Q04DX002 (ip), vehicle: saline 94 % of control | endpoint: mean survival time, dose: 400.0 mg/kg/injection, schedule: Q04DX002 (ip), vehicle: saline 105 % of control

COc1ccc(CCCC(=O)O)cc1
inactive: [9] 94 % of control | [10] 92 % of control | [11] 94 % of control

S=C(NCCNC(=S)[S][Sn]([c]1ccccc1)([c]1ccccc1)[c]1ccccc1)[S][Sn]([c]1ccccc1)([c]1ccccc1)[c]1ccccc1
inactive: [7] 88 % of control | [8] 93 % of control | [2] 100 % of control

Cc1ccc(NC(=O)Oc2ccc(Br)cc2)cc1[N+](=O)[O-]
inactive: endpoint: mean survival time, dose: 50.0 mg/kg/injection, schedule: Q01DX009 (ip), vehicle: saline with Tween-80 98 % of control | [1] 102 % of control | [3] 98 % of control

Cc1c[nH]c(=O)n(CC(=O)C2(O)CCC3C4CCC5=CC(=O)CCC5(C)C4CCC32C)c1=O (stereo not drawn)
inactive: endpoint: mean survival time, dose: 12.5 mg/kg/injection, schedule: Q04DX003 (ip), vehicle: Klucel (hydroxypropylcellulose) (HPC) 103 % of control | endpoint: mean survival time, dose: 25.0 mg/kg/injection, schedule: Q04DX003 (ip), vehicle: Klucel (hydroxypropylcellulose) (HPC) 102 % of control | endpoint: mean survival time, dose: 50.0 mg/kg/injection, schedule: Q04DX003 (ip), vehicle: Klucel (hydroxypropylcellulose) (HPC) 102 % of control | endpoint: mean survival time, dose: 100.0 mg/kg/injection, schedule: Q04DX003 (ip), vehicle: Klucel (hydroxypropylcellulose) (HPC) 97 % of control | endpoint: mean survival time, dose: 200.0 mg/kg/injection, schedule: Q04DX003 (ip), vehicle: Klucel (hydroxypropylcellulose) (HPC) 100 % of control

Cn1c(=O)c2c(nc(N3CCOCC3)n2CCCNCC(O)c2ccc(O)c(O)c2)n(C)c1=O (stereo not drawn)
inactive: endpoint: mean survival time, dose: 12.5 mg/kg/injection, schedule: Q01DX005 (ip), vehicle: water 102 % of control | endpoint: mean survival time, dose: 25.0 mg/kg/injection, schedule: Q01DX005 (ip), vehicle: water 96 % of control | endpoint: mean survival time, dose: 50.0 mg/kg/injection, schedule: Q01DX005 (ip), vehicle: water 97 % of control | endpoint: mean survival time, dose: 100.0 mg/kg/injection, schedule: Q01DX005 (ip), vehicle: water 96 % of control | endpoint: mean survival time, dose: 200.0 mg/kg/injection, schedule: Q01DX005 (ip), vehicle: water 92 % of control

COc1ccccc1-n1c(O)c(N=Nc2ccccc2)c(=O)n(-c2ccccc2OC)c1=S
inactive: [9] 105 % of control | [10] 102 % of control
